Test results published in patent publication US20080031982A1 (Metaproteomics, LLC, priority 2006, published 2008).

Key:
Assay in all cases: KinaseProfiler Assay
CDK5/p25 = CDK5/p25 (Homo sapiens, UniProt Q00535)
CHK1 = target: T1, CHK1 (Homo sapiens, UniProt O14757)
T1 sequence (O14757 1-476): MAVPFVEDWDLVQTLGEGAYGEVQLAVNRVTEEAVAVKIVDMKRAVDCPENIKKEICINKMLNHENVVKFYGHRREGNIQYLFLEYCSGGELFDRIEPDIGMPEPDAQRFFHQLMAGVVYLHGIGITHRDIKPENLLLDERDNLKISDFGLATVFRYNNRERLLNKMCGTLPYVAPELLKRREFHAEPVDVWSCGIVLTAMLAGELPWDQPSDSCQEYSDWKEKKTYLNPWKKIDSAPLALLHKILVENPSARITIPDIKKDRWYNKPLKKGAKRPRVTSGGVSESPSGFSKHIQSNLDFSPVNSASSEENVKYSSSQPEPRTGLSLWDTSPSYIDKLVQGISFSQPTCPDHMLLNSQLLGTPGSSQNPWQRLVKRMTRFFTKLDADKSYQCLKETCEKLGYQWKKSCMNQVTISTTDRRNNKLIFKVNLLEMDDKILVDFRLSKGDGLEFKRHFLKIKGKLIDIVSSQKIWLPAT

cSRC = cSRC (Homo sapiens, UniProt P12931)
EphA8 = target: T2, EphA8 (Homo sapiens, UniProt P29322)
T2 sequence (P29322 28-1005): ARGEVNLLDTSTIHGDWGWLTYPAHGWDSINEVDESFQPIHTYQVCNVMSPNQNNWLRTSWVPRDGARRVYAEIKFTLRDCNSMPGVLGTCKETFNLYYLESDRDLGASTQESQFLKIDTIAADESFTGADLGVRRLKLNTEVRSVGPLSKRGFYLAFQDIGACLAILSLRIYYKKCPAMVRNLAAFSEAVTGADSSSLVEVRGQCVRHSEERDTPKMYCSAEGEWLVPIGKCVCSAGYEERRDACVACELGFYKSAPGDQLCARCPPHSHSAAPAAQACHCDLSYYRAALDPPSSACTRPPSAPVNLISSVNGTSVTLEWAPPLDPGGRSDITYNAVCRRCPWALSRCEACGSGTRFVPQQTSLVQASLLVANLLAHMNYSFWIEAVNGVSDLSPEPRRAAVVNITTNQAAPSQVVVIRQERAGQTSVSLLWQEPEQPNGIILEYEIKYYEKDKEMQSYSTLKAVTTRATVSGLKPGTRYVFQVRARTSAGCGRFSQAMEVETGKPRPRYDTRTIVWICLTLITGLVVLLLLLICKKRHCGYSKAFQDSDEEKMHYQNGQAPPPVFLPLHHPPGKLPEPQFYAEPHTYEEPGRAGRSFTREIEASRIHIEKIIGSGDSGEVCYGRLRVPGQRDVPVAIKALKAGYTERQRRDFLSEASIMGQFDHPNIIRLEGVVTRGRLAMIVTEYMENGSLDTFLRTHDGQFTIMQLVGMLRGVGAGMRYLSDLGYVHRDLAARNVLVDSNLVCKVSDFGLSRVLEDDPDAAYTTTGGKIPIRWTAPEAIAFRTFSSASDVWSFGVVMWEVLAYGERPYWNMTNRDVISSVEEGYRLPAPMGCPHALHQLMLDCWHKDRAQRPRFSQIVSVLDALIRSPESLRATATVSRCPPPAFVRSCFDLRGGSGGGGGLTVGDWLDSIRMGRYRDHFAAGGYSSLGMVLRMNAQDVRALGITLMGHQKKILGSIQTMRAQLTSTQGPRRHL

ErbB4 = ErbB4 (Homo sapiens, UniProt Q15303)
Fyn = Fyn (Homo sapiens, UniProt P06241)
GSK3β = GSK3β (Homo sapiens, UniProt P49841)
GSK3α = GSK3α (Homo sapiens, UniProt P49840)
PKA = PKA (Homo sapiens, UniProt P17612)
Ron = Ron (Homo sapiens, UniProt Q04912)
TrkA = TrkA (Homo sapiens, UniProt P04629)
CK1γ1 = CK1γ1 (Homo sapiens, UniProt Q9HCP0)
CK1γ3 = CK1γ3 (Homo sapiens, UniProt Q9Y6M4)
cKit(D816H) = cKit(D816H) (Homo sapiens, UniProt P10721, D816H)

Sequence of GSK3α (P49840 whole entry): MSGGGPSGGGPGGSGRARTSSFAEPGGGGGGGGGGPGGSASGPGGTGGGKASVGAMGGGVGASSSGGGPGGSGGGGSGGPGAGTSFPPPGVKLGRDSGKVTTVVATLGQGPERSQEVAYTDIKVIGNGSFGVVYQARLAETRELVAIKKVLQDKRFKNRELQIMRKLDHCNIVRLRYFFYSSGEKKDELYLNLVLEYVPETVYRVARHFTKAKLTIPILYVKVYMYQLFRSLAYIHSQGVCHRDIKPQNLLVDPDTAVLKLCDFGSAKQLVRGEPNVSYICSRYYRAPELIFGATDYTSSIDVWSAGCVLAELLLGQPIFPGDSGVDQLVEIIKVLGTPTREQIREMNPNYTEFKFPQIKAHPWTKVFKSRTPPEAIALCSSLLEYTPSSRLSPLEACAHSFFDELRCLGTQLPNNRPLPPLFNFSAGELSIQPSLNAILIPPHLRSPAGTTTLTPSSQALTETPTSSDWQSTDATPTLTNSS
Sequence of cSRC (P12931 whole entry): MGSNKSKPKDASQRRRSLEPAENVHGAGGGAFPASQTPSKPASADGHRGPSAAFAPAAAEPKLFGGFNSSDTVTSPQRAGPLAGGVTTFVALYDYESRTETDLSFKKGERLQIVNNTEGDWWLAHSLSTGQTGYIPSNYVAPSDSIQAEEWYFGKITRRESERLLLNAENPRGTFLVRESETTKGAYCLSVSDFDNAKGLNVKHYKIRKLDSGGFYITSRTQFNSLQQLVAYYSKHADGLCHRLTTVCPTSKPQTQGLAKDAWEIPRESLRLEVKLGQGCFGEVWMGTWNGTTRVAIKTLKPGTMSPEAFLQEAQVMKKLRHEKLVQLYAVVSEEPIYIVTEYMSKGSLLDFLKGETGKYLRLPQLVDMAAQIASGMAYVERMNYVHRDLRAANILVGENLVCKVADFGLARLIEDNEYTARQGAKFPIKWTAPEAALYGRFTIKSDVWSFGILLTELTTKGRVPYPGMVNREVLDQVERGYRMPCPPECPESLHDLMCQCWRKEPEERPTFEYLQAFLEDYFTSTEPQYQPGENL
Sequence of CK1γ1 (Q9HCP0 whole entry): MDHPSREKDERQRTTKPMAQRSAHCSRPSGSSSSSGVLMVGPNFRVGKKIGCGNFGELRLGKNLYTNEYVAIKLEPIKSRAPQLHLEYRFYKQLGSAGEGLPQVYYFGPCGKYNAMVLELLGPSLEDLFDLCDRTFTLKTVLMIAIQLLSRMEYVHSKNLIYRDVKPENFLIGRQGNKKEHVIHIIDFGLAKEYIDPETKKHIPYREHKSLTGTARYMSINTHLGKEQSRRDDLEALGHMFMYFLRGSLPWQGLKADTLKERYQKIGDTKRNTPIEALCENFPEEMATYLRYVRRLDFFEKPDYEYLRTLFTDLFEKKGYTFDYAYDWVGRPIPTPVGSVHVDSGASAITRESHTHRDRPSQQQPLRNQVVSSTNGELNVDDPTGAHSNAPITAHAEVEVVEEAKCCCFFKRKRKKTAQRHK
Sequence of TrkA (P04629 33-796): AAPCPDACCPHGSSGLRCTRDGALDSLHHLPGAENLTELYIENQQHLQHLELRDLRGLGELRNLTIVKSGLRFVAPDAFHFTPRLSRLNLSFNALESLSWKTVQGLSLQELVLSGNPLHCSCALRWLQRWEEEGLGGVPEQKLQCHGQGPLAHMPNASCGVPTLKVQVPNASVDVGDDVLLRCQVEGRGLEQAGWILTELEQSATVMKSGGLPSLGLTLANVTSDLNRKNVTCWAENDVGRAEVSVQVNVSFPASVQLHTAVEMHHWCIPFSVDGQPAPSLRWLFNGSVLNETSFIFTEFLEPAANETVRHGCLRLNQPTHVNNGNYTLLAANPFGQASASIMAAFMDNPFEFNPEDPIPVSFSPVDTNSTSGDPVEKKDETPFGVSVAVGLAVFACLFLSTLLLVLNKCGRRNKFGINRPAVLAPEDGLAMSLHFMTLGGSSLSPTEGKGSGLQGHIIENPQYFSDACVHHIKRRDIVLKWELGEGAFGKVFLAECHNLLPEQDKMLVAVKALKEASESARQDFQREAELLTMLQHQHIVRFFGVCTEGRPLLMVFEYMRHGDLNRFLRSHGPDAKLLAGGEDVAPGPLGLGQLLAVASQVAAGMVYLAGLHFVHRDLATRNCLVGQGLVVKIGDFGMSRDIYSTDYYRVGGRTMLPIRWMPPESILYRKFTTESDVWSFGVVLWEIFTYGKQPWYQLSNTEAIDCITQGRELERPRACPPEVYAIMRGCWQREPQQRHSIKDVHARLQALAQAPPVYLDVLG
Sequence of ErbB4 (Q15303 26-1308): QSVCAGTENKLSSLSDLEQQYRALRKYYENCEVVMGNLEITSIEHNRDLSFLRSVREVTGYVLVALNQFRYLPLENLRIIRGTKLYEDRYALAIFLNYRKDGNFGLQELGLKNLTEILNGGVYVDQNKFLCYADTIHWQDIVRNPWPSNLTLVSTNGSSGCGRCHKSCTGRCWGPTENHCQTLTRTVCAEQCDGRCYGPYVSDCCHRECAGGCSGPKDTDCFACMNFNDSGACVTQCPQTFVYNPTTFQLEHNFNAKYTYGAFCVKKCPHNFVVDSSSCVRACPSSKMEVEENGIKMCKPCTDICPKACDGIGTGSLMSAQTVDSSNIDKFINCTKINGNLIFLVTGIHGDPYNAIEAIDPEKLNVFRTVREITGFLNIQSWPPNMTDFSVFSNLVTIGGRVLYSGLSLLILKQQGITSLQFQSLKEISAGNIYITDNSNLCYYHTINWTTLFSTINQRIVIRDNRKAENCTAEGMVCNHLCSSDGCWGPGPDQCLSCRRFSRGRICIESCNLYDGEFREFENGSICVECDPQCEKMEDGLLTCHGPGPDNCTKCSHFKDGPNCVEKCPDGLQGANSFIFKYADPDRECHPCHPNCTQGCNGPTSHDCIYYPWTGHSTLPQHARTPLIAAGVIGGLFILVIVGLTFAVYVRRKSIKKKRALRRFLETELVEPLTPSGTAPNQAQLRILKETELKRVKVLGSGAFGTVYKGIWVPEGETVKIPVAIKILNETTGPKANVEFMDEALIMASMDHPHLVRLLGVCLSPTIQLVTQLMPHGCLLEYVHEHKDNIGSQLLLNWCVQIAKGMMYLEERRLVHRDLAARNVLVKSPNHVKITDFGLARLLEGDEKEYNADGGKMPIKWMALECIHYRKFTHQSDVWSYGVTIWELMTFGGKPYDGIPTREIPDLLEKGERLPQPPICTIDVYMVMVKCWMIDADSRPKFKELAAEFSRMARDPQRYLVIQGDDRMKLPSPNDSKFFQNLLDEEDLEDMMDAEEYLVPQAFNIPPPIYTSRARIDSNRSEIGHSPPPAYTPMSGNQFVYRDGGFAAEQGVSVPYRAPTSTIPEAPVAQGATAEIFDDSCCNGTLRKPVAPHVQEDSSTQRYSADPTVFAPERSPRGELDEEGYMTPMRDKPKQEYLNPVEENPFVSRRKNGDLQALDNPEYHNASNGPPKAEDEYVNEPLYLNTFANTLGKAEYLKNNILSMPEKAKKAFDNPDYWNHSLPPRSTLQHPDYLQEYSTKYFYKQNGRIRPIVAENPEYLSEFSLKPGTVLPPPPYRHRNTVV
Sequence of GSK3β (P49841 whole entry): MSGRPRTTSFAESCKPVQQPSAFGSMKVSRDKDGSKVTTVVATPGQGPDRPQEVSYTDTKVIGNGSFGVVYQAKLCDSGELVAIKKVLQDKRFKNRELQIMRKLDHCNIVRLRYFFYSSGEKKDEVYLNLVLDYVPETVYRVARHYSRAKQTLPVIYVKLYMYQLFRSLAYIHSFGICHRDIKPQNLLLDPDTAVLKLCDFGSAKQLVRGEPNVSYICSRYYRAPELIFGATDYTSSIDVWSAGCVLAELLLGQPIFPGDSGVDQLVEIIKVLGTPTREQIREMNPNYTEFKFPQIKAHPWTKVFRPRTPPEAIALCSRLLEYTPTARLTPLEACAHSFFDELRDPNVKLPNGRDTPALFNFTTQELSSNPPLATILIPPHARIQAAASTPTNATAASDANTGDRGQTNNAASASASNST
Sequence of Fyn (P06241 whole entry): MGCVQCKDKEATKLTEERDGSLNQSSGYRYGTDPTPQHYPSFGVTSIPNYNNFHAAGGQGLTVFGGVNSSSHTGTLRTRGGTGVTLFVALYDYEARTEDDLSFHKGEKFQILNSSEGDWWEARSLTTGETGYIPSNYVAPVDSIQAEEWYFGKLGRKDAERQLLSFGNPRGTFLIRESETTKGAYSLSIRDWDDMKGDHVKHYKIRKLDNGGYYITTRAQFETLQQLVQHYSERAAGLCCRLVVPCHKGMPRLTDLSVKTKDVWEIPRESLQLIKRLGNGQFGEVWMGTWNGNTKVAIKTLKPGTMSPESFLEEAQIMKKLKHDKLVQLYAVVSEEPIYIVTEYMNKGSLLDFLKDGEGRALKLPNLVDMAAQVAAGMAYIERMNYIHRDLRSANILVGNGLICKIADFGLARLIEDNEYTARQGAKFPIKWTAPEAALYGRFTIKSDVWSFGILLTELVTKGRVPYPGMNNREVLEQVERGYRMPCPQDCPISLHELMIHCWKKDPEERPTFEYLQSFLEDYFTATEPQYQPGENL
Sequence of CK1γ3 (Q9Y6M4 whole entry): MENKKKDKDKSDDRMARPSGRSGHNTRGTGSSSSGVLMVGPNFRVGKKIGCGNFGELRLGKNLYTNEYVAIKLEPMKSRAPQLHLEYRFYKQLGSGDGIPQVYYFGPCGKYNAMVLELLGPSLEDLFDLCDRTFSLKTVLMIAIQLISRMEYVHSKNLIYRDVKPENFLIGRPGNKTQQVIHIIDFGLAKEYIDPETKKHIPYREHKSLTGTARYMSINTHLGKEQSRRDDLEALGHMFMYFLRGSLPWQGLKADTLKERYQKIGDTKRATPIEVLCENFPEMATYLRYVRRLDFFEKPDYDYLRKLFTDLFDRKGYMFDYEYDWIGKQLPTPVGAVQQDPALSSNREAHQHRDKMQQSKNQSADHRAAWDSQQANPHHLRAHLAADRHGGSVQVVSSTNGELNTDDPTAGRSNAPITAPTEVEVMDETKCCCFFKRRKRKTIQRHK

**Q.** Which results are given for `COc1cc(O)c(CC=C(C)C)c(O)c1C(=O)/C=C/c1ccc(O)cc1` [Xanthohumol, xanthohumol]?
**A.** Kinase activity, % of Control (CDK5/p25; 25 ug/ml): 24 % of Control; Kinase activity, % of Control (CDK5/p25; 50 ug/ml): 87 % of Control; Kinase activity, % of Control (CHK1; 1 ug/ml): 121 % of Control; Kinase activity, % of Control (CHK1; 5 ug/ml): 126 % of Control; Kinase activity, % of Control (CHK1; 25 ug/ml): 142 % of Control; Kinase activity, % of Control (CHK1; 50 ug/ml): 149 % of Control; Kinase activity, % of Control (cSRC; 1 ug/ml): 92 % of Control; Kinase activity, % of Control (cSRC; 5 ug/ml): 50 % of Control; Kinase activity, % of Control (cSRC; 25 ug/ml): 27 % of Control; Kinase activity, % of Control (cSRC; 50 ug/ml): 21 % of Control; Kinase activity, % of Control (EphA8; 1 ug/ml): 103 % of Control; Kinase activity, % of Control (EphA8; 5 ug/ml): 92 % of Control; Kinase activity, % of Control (EphA8; 25 ug/ml): 29 % of Control; Kinase activity, % of Control (EphA8; 50 ug/ml): 19 % of Control; Kinase activity, % of Control (ErbB4; 1 ug/ml): 132 % of Control; Kinase activity, % of Control (ErbB4; 5 ug/ml): 85 % of Control; Kinase activity, % of Control (ErbB4; 25 ug/ml): 52 % of Control; Kinase activity, % of Control (ErbB4; 50 ug/ml): 27 % of Control; Kinase activity, % of Control (Fyn; 1 ug/ml): 104 % of Control; Kinase activity, % of Control (Fyn; 5 ug/ml): 66 % of Control; Kinase activity, % of Control (Fyn; 25 ug/ml): 42 % of Control; Kinase activity, % of Control (Fyn; 50 ug/ml): 18 % of Control; Kinase activity, % of Control (GSK3β; 1 ug/ml): 120 % of Control; Kinase activity, % of Control (GSK3β; 5 ug/ml): 99 % of Control; Kinase activity, % of Control (GSK3β; 25 ug/ml): 25 % of Control; Kinase activity, % of Control (GSK3β; 50 ug/ml): 3 % of Control; Kinase activity, % of Control (GSK3α; 1 ug/ml): 102 % of Control; Kinase activity, % of Control (GSK3α; 25 ug/ml): 11 % of Control; Kinase activity, % of Control (GSK3α; 50 ug/ml): −4 % of Control; Kinase activity, % of Control (PKA; 1 ug/ml): 105 % of Control; Kinase activity, % of Control (PKA; 5 ug/ml): 109 % of Control; Kinase activity, % of Control (PKA; 25 ug/ml): 98 % of Control; Kinase activity, % of Control (PKA; 50 ug/ml): 21 % of Control; Kinase activity, % of Control (Ron; 1 ug/ml): 135 % of Control; Kinase activity, % of Control (Ron; 5 ug/ml): 127 % of Control; Kinase activity, % of Control (Ron; 25 ug/ml): 60 % of Control; Kinase activity, % of Control (Ron; 50 ug/ml): 69 % of Control; Kinase activity, % of Control (TrkA; 1 ug/ml): 36 % of Control; Kinase activity, % of Control (TrkA; 5 ug/ml): 19 % of Control; Kinase activity, % of Control (TrkA; 25 ug/ml): 8 % of Control; Kinase activity, % of Control (TrkA; 50 ug/ml): 3 % of Control; Kinase activity, % of Control (CK1γ1; 1 ug/ml): 101 % of Control; Kinase activity, % of Control (CK1γ1; 5 ug/ml): 79 % of Control; Kinase activity, % of Control (CK1γ1; 25 ug/ml): 50 % of Control; Kinase activity, % of Control (CK1γ1; 50 ug/ml): 26 % of Control; Kinase activity, % of Control (CK1γ3; 1 ug/ml): 98 % of Control; Kinase activity, % of Control (CK1γ3; 5 ug/ml): 51 % of Control; Kinase activity, % of Control (CK1γ3; 25 ug/ml): 22 % of Control; Kinase activity, % of Control (CK1γ3; 50 ug/ml): 15 % of Control; Kinase activity, % of Control (cKit(D816H); 1 ug/ml): 94 % of Control; Kinase activity, % of Control (cKit(D816H); 5 ug/ml): 45 % of Control; Kinase activity, % of Control (cKit(D816H); 25 ug/ml): 14 % of Control
